Where “and” joins values, the source holds several entries; their conditions need not be identical. Identical values can stand only once.
Test system: creatininase (Toyobo)
Assay: Toyobo Creatininase Enzyme Absorbance with BSA and MIT
Assay type: biochemical
[1] = Day 0, 5 mg/mL BSA, no MIT (row of 100 ppm MIT)
[2] = Day 0, 25 mg/mL BSA, no MIT (row of 50 ppm MIT)
[3] = Day 0, 25 mg/mL BSA, no MIT (row of 100 ppm MIT)
[4] = Day 0, 50 mg/mL BSA, no MIT (row of 50 ppm MIT)
[5] = Day 0, 50 mg/mL BSA, no MIT (row of 100 ppm MIT)
[6] = Day 0, 50 ppm MIT, 25 mg/mL BSA
[7] = Day 0, 50 ppm MIT, 50 mg/mL BSA
[8] = Day 0, 100 ppm MIT, 5 mg/mL BSA
[9] = Day 0, 100 ppm MIT, 25 mg/mL BSA
[10] = Day 0, 100 ppm MIT, 50 mg/mL BSA
[11] = Day 4, 50 ppm MIT, 25 mg/mL BSA
[12] = Day 4, 50 ppm MIT, 50 mg/mL BSA
[13] = Day 4, 100 ppm MIT, 5 mg/mL BSA
[14] = Day 4, 100 ppm MIT, 25 mg/mL BSA
[15] = Day 4, 100 ppm MIT, 50 mg/mL BSA
[16] = Day 14, 50 ppm MIT, 5 mg/mL BSA
[17] = Day 14, 50 ppm MIT, 25 mg/mL BSA
[18] = Day 14, 50 ppm MIT, 50 mg/mL BSA
[19] = Day 14, 100 ppm MIT, 5 mg/mL BSA
[20] = Day 14, 100 ppm MIT, 25 mg/mL BSA
[21] = Day 14, 100 ppm MIT, 50 mg/mL BSA

Description: Absorbance measurements of the creatininase enzyme(s) were taken via spectrophotometer for each aqueous solution (represented as columns 1-5 in Tables 5-8—column 6 is a blank), the absorbance being directly proportional to the enzyme activity being measured-which for Tables 5-8 is creatininase enzyme activity. Accordingly, the higher the absorbance measurement, the higher the enzyme activity of creatininase. Columns 7-11 represent five replicate readings in which the solution only contains BSA (i.e., there is no biocide(s) present in the solution). In addition, the mean values, standard deviations, and coefficients of variation are all presented for the enzyme activity/absorbance of each aqueous solution. All measurements were taken at 37° C.
As depicted in Table 6, creatininase (commercially offered for sale by Toyobo) enzyme activity is measured against various concentrations of MIT (biocide) and BSA (scavenger protein) over a period of 14 days (with absorbance measurement taken at 0, 4, and 14 days) for five different aqueous solutions (represented as columns 1-5—column 6 is a blank).

MEAN (columns 7-11) (Day 0, 5 mg/mL BSA, no MIT (row of 50 ppm MIT)): 0.59
Creatininase Enzyme Absorbance, columns 7-11 [1]: 0.806 and 0.802 and 0.845
MEAN (columns 7-11) [1]: 0.61
Creatininase Enzyme Absorbance, columns 7-11 [2]: 0.767
MEAN (columns 7-11) [2]: 0.58
Creatininase Enzyme Absorbance, columns 7-11 [3]: 0.751 and 0.768 and 0.799 and 0.806
MEAN (columns 7-11) [3]: 0.57
Creatininase Enzyme Absorbance, columns 7-11 [4]: 0.845
MEAN (columns 7-11) [4]: 0.64
Creatininase Enzyme Absorbance, columns 7-11 [5]: 0.735 and 0.782 and 0.778
MEAN (columns 7-11) [5]: 0.55
% Bias (Day 0, 50 ppm MIT vs no MIT, 5 mg/mL BSA): 6.6%
% Bias (Day 0, 50 ppm MIT vs no MIT, 25 mg/mL BSA): 8.6%
% Bias (Day 0, 50 ppm MIT vs no MIT, 50 mg/mL BSA): 4.9%
MEAN (Day 0, 50 ppm MIT, 5 mg/mL BSA): 0.63
MEAN [6]: 0.63
MEAN [7]: 0.67
% Bias (Day 0, 100 ppm MIT vs no MIT, 5 mg/mL BSA): 7.6%
% Bias (Day 0, 100 ppm MIT vs no MIT, 25 mg/mL BSA): 10.4%
% Bias (Day 0, 100 ppm MIT vs no MIT, 50 mg/mL BSA): 10.1%
MEAN [8]: 0.66
MEAN [9]: 0.63
MEAN [10]: 0.60
MEAN (columns 7-11) (Day 4, 5 mg/mL BSA, no MIT (row of 50 ppm MIT)): 0.81
MEAN (columns 7-11) (Day 4, 5 mg/mL BSA, no MIT (row of 100 ppm MIT)): 0.77
MEAN (columns 7-11) (Day 4, 25 mg/mL BSA, no MIT (row of 50 ppm MIT)): 0.64
MEAN (columns 7-11) (Day 4, 25 mg/mL BSA, no MIT (row of 100 ppm MIT)): 0.62
MEAN (columns 7-11) (Day 4, 50 mg/mL BSA, no MIT (row of 50 ppm MIT)): 0.52
MEAN (columns 7-11) (Day 4, 50 mg/mL BSA, no MIT (row of 100 ppm MIT)): 0.51
% Bias (Day 4, 50 ppm MIT vs no MIT, 5 mg/mL BSA): −0.2%
% Bias (Day 4, 50 ppm MIT vs no MIT, 25 mg/mL BSA): 1.5%
% Bias (Day 4, 50 ppm MIT vs no MIT, 50 mg/mL BSA): 1.9%
MEAN (Day 4, 50 ppm MIT, 5 mg/mL BSA): 0.81
MEAN [11]: 0.65
MEAN [12]: 0.53
% Bias (Day 4, 100 ppm MIT vs no MIT, 5 mg/mL BSA): 2.2%
% Bias (Day 4, 100 ppm MIT vs no MIT, 25 mg/mL BSA): 5.6%
% Bias (Day 4, 100 ppm MIT vs no MIT, 50 mg/mL BSA): 7.0%
MEAN [13]: 0.79
MEAN [14]: 0.65
MEAN [15]: 0.54
MEAN (columns 7-11) (Day 14, 5 mg/mL BSA, no MIT (row of 50 ppm MIT)): 0.90
MEAN (columns 7-11) (Day 14, 5 mg/mL BSA, no MIT (row of 100 ppm MIT)): 0.87
MEAN (columns 7-11) (Day 14, 25 mg/mL BSA, no MIT (row of 50 ppm MIT)): 0.70
MEAN (columns 7-11) (Day 14, 25 mg/mL BSA, no MIT (row of 100 ppm MIT)): 0.72
MEAN (columns 7-11) (Day 14, 50 mg/mL BSA, no MIT (row of 50 ppm MIT)): 0.55
MEAN (columns 7-11) (Day 14, 50 mg/mL BSA, no MIT (row of 100 ppm MIT)): 0.56
% Bias (Day 14, 50 ppm MIT vs no MIT, 5 mg/mL BSA): −1.7%
% Bias (Day 14, 50 ppm MIT vs no MIT, 25 mg/mL BSA): 10.4%
% Bias (Day 14, 50 ppm MIT vs no MIT, 50 mg/mL BSA): 3.9%
MEAN [16]: 0.88
MEAN [17]: 0.77
MEAN [18]: 0.57
% Bias (Day 14, 100 ppm MIT vs no MIT, 5 mg/mL BSA): 4.1%
% Bias (Day 14, 100 ppm MIT vs no MIT, 25 mg/mL BSA): 3.3%
% Bias (Day 14, 100 ppm MIT vs no MIT, 50 mg/mL BSA): 6.0%
MEAN [19]: 0.91
MEAN [20]: 0.75
MEAN [21]: 0.60
absorbance of the creatininase enzyme compared to samples containing 0 mg/mL of BSA (days 4 and 14, 5, 25 and 50 mg/mL BSA, with MIT): increased absorbance
creatininase absorbance, solutions 7-11 (days 4 and 14, only BSA, no MIT): increased (or at least maintained)
BSA concentration at which the creatininase absorbance measurement is highest (days 4 and 14, with MIT): 5 mg/mL
Substance: bovine serum albumin [BSA]
Creatininase Enzyme Absorbance (Day 0, 50 ppm MIT, 5 mg/mL BSA): 0.893 and 0.808 and 0.806 and 0.812 and 0.843
Creatininase Enzyme Absorbance [6]: 0.895 and 0.829 and 0.788 and 0.82 and 0.831
Creatininase Enzyme Absorbance [7]: 0.905 and 0.862 and 0.847 and 0.863 and 0.895
Creatininase Enzyme Absorbance [8]: 0.922 and 0.849 and 0.843 and 0.844 and 0.859
Creatininase Enzyme Absorbance [9]: 0.905 and 0.838 and 0.807 and 0.795 and 0.811
Creatininase Enzyme Absorbance [10]: 0.867 and 0.794 and 0.799 and 0.792 and 0.771
Creatininase Enzyme Absorbance (Day 4, 50 ppm MIT, 5 mg/mL BSA): 1.031 and 0.998 and 1.012 and 1.044 and 1.01
Creatininase Enzyme Absorbance [11]: 0.867 and 0.847 and 0.853 and 0.878 and 0.873
Creatininase Enzyme Absorbance [12]: 0.737 and 0.728 and 0.749 and 0.75 and 0.765
Creatininase Enzyme Absorbance [13]: 0.998 and 0.974 and 1.006 and 1.008 and 1.031
Creatininase Enzyme Absorbance [14]: 0.871 and 0.863 and 0.869 and 0.86 and 0.866
Creatininase Enzyme Absorbance [15]: 0.773 and 0.775 and 0.754 and 0.734 and 0.742
Creatininase Enzyme Absorbance [16]: 1.13 and 1.104 and 1.098 and 1.12 and 1.117
Creatininase Enzyme Absorbance [17]: 1.021 and 0.986 and 0.982 and 1.025 and 0.996
Creatininase Enzyme Absorbance [18]: 0.814 and 0.793 and 0.789 and 0.796 and 0.804
Creatininase Enzyme Absorbance [19]: 1.155 and 1.123 and 1.105 and 1.133 and 1.156
Creatininase Enzyme Absorbance [20]: 0.997 and 0.966 and 0.95 and 0.992 and 0.976
Creatininase Enzyme Absorbance [21]: 0.854 and 0.822 and 0.792 and 0.828 and 0.832

From patent US11339419B2, “Scavenger protein(s) for improved preservation of analyte detection sensor(s) and method(s) of use thereof” (Siemens Healthcare Diagnostics Inc., priority 2017, dated 2022)
